Measurements: patent US12201640B2, “19-nor C3,3-disubstituted C21-n-pyrazolyl steroids and methods of use thereof” (Sage Therapeutics, Inc., priority 2013, dated 2025)
pIC50: −log10 of the molar value.

Key:
[1] = biological target: [35S]-TBPS binding, rat brain cortical membranes (GABA receptor complex); assay: Steroid inhibition of [35S]-TBPS binding; conditions: 3 nM [35S]-TBPS, 5 μM GABA
Procedure: Steroid Inhibition of TBPS Binding
[35S]-t-Butylbicyclophosphorothionate (TBPS) binding assays using rat brain cortical membranes in the presence of 5 μM GABA has been described (Gee et al, J. Pharmacol. Exp. Ther. 1987, 241, 346-353; Hawkinson et al, Mol. Pharmacol. 1994, 46, 977-985; Lewin, A. H et al., Mol. Pharmacol. 1989, 35, 189-194).
Briefly, cortices are rapidly removed following decapitation of carbon dioxide-anesthetized Sprague-Dawley rats (200-250 g). The cortices are homogenized in 10 volumes of ice-cold 0.32 M sucrose using a glass/teflon homogenizer and centrifuged at 1500×g for 10 min at 4° C. The resultant supernatants are centrifuged at 10,000×g for 20 min at 4° C. to obtain the P2 pellets. The P2 pellets are resuspended in 200 mM NaCl/50 mM Na-K phosphate pH 7.4 buffer and centrifuged at 10,000×g for 10 min at 4° C. This washing procedure is repeated twice and the pellets are resuspended in 10 volumes of buffer. Aliquots (100 μL) of the membrane suspensions are incubated with 3 nM [^35S]-TBPS and 5 μL aliquots of test drug dissolved in dimethyl sulfoxide (DMSO) (final 0.5%) in the presence of 5 μM GABA. The incubation is brought to a final volume of 1.0 mL with buffer. Nonspecific binding is determined in the presence of 2 μM unlabeled TBPS and ranged from 15 to 25%. Following a 90 min incubation at room temp, the assays are terminated by filtration through glass fiber filters (Schleicher and Schuell No. 32) using a cell harvester (Brandel) and rinsed three times with ice-cold buffer. Filter bound radioactivity is measured by liquid scintillation spectrometry. Non-linear curve fitting of the overall data for each drug averaged for each concentration is done using Prism (GraphPad). […] The concentration of test compound producing 50% inhibition (IC50) of specific binding and the maximal extent of inhibition (Imax) are determined for the individual experiments with the same model used for the overall data and then the means±SEM.s of the individual experiments are calculated.
Various compounds are or can be screened to determine their potential as modulators of [^35S]-TBPS binding in vitro. These assays are or can be performed in accordance with the above discussed procedures.

PTZ-treated mice = assay: Acute PTZ (pentylenetetrazol-induced seizure) assay in mice; type: in vivo, mouse; conditions: latency to tonic seizures
Procedure: The anticonvulsant effect of test compounds were assessed in the pentylenetetazol-induced seizure assay in mice similar to methods described in Giardina & Gasior (2009) Curr Protoc Pharmacol., Chapter 5. Male CD-1 mice were housed in groups of five under controlled conditions (temperature of 22±2° C. and 12:12 light-dark cycle, lights on at 8:00 am) and water and food were available ad libitum. The mice were housed for 1 week prior to behavioral testing, at which time they weighed 25-35 g. Pentylenetetrazol (PTZ, Sigma) was dissolved in sterile 0.9% saline at a concentration of 12 mg/mL concentration for subcutaneous administration. Test compounds were formulated and administered via oral gavage or intraperitoneal injection at a predetermined time-point (typically 30 or 60 minutes) prior to PTZ injection. All solutions were made fresh and were given in a volume of 10 ml/kg body weight.
Mice were acclimated to the test room for at least 30 min before compound administration. Mice were randomized into at least four test groups (vehicle and at least three doses of the test compound) with 10 mice per group. […] Following the drug pretreatment time the mice were injected s.c. with PTZ (120 mg/kg). Immediately following the PTZ injection, mice were individually placed into observation chambers (25×15×15 cm) and a three-channel timer was started. Each mouse was continuously observed for 30 min and the following behaviors were recorded by observers blinded to the treatments: 1) latency to clonic convulsions that persist for 3 sec and followed by an absence of righting reflex 2) latency to tonic convulsions, characterized by the rigid extension of all four limbs that exceeded a 90 degree angle with the body 3) latency to death 4) number of clonic and tonic convulsions. Data are presented as mean±S.E.M and one-way analysis of variance with Dunnett's or Bonferroni's post-hoc test was used to detect significant differences in latency and number between the vehicle and dose group. p values<0.05 were regarded as statistically significant.

male Sprague Dawley rats = assay: Loss of righting reflex in rats; type: in vivo; conditions: Rat IV, 5 mpk
Procedure: Loss of Righting Reflex in Rats
The plasma pharmacokinetics and a qualitative assessment of sedation were obtained in male
Sprague Dawley rats according to the following procedure. Rats were dosed by intravenous bolus dose (60 seconds) via the foot dorsal vein at doses ranging from 5 to 15 mg/kg in an appropriate vehicle. In order to assess sedation, rats were gently restrained by hand to a lateral position for dose administration. […] If the animal was unable to return to an upright position, the time was recorded as the onset of loss of righting reflex (LRR). […] Sluggish or incomplete righting twice consecutively within a 30 second interval qualifies as a loss of righting reflex. After onset of LRR, animals were assessed every 5 minutes in the same manner. Recovery of righting reflex is defined as the ability of a rat to right itself completely within 20 seconds of being placed in dorsal recumbency. The duration of LRR is defined as the time interval between LRR and the return of righting reflex.

Row | Structure (SMILES) | pIC50 [1] | Anticonvulsive Effect Dose (minimal effective anticonvulsant dose) (PTZ-treated mice; IP) | Duration of Rat LRR (male Sprague Dawley rats) | Anticonvulsive Effect Dose (minimal effective anticonvulsant dose) (PTZ-treated mice; PO)
1 | C[C@@]1(O)CC[C@H]2[C@H](CC[C@@H]3[C@@H]2CC[C@]2(C)[C@@H](C(=O)Cn4cccn4)CC[C@@H]32)C1 [SA-13] | 7.30 to 8.00 | B (IP) (≥3 mpk) |  | 
2 | Cc1cnn(CC(=O)[C@H]2CC[C@H]3[C@@H]4CC[C@@H]5C[C@](C)(O)CC[C@@H]5[C@H]4CC[C@]23C)c1 [SA-6] | 7.30 to 8.00 |  | A (<15 min) | 
3 | C[C@@]1(O)CC[C@H]2[C@H](CC[C@@H]3[C@@H]2CC[C@]2(C)[C@@H](C(=O)Cn4cc(C#N)cn4)CC[C@@H]32)C1 [SA-4] | > 8.00 |  | C (>60 min) | A (PO) (<3 mpk)
